Test results as given in ChEMBL document CHEMBL5257038, “Active Natural Product Scaffolds against Trypanosomatid Parasites: A Review” (J Nat Prod, 2018).
Positions of bridges follow the written chain, without caps; N, C: chain ends. Non-standard residues stand in square brackets, D forms with d. Residues, ends and D or L forms follow the SMILES beside them. ξ: configuration not given here. ξK = NCCCCC(N)C(=O)O

Key:
[1] = system: Trypanosoma brucei brucei; assay: Antitrypanosomal activity against bloodstream form of Trypanosoma brucei brucei assessed as reduction in parasite growth; assay type: functional, organism-based
[2] = Selectivity index, ratio of IC50 for cytotoxicity against mouse peritoneal macrophage cells to IC50 for antileishmanial activity against Leishmania donovani promastigotes; assay type: toxicity, cell-based; details: read-out: Ratio IC50
[3] = system: Trypanosoma brucei; assay: Antitrypanosomal activity against bloodstream form of Trypanosoma brucei assessed as parasite growth inhibition; assay type: functional, organism-based
[4] = Selectivity index, ratio of IC50 for cytotoxicity against mouse peritoneal macrophage cells to IC50 for antitrypanosomal activity against bloodstream form of Trypanosoma brucei; assay type: toxicity, cell-based; details: read-out: Ratio IC50
[5] = system: Leishmania donovani; assay: Antileishmanial activity against Leishmania donovani promastigotes assessed as parasite growth inhibition; assay type: functional, organism-based
[6] = Selectivity index, ratio of IC50 for cytotoxicity against rat L6 cells to IC50 for antitrypanosomal activity against bloodstream form of Trypanosoma brucei rhodesiense; assay type: toxicity, cell-based; details: read-out: Ratio IC50
[7] = system: Trypanosoma brucei rhodesiense; assay: Antitrypanosomal activity against bloodstream form of Trypanosoma brucei rhodesiense assessed as parasite growth inhibition; assay type: functional, organism-based
[8] = system: Trypanosoma cruzi; assay: Antitrypanosomal activity against intracellular Trypanosoma cruzi amastigote assessed as reduction in parasite growth; assay type: functional, organism-based
[9] = system: Leishmania donovani; assay: Antileishmanial activity against amastigote form of Leishmania donovani assessed as parasite growth inhibition; assay type: functional, organism-based
[10] = system: Leishmania infantum; assay: Antileishmanial activity against amastigote stage of Leishmania infantum; assay type: functional, organism-based
[11] = system: Leishmania major; assay: Antileishmanial activity against Leishmania major promastigotes assessed as parasite growth inhibition; assay type: functional, organism-based
[12] = system: Trypanosoma brucei brucei; assay: Antitrypanosomal activity against Trypanosoma brucei brucei; assay type: functional, organism-based
[13] = Selectivity index, ratio of IC50 for cytotoxicity against human T98G cells to IC50 for antitrypanosomal activity against Trypanosoma brucei brucei; assay type: toxicity, cell-based; details: read-out: Ratio IC50
[14] = system: Trypanosoma cruzi; assay: Antitrypanosomal activity against epimastigote form of Trypanosoma cruzi assessed as reduction in parasite growth; assay type: functional, organism-based
[15] = system: Trypanosoma cruzi; assay: Antitrypanosomal activity against trypomastigote form of Trypanosoma cruzi assessed as reduction in parasite growth; assay type: functional, organism-based
[16] = system: THP-1; assay: Cytotoxicity against human THP-1 cells; assay type: functional, cell-based
[17] = system: Leishmania infantum; assay: Antileishmanial activity against promastigote stage of Leishmania infantum; assay type: functional, organism-based
[18] = Selectivity index, ratio of IC50 for cytotoxicity against rat L6 cells to IC50 for antileishmanial activity against amastigote form of Leishmania donovani; assay type: toxicity, cell-based; details: read-out: Ratio IC50
[19] = Selectivity index, ratio of IC50 for cytotoxicity against rat L6 cells to IC50 for antitrypanosomal activity against intracellular Trypanosoma cruzi amastigote; assay type: toxicity, cell-based; details: read-out: Ratio IC50
[20] = system: Leishmania donovani; assay: Antileishmanial activity against Leishmania donovani promastigotes infected in golden hamster assessed as reduction in parasite load in spleen at 3.5 mg/kg administered twice per week for 4 weeks relative to control; assay type: functional; parameters: scale not given: the % may be the effect or the level left
[21] = Selectivity index, ratio of CC50 for cytotoxicity against rat L6 cells to IC50 for antitrypanosomal activity against bloodstream form of Trypanosoma brucei rhodesiense; assay type: toxicity, cell-based; details: read-out: Ratio CC50/IC50
[22] = Selectivity index, ratio of IC50 for cytotoxicity against African green monkey Vero cells to IC50 for antitrypanosomal activity against Trypanosoma cruzi amastigote; assay type: toxicity, cell-based; details: read-out: Ratio IC50
[23] = system: Trypanosoma cruzi; assay: Antitrypanosomal activity against Trypanosoma cruzi amastigote; assay type: functional, organism-based

## O=c1c(O[C@@H]2O[C@H](CO)[C@@H](O)[C@H](O)[C@H]2O)c(-c2cc(O)c(O)c(O)c2)oc2cc(O)cc(O)c12
[1]
  EC50: 13100 nM

## Cn1c2c3cc(Br)ccc3nc-2cc2cc(Br)ccc21
[2]
  selectivity ratio: 18
[3]
  EC50: 2.9 nM
[4]
  selectivity ratio: 2080
[5]
  EC50: 500 nM

## COc1ccc2c(=O)cc(-c3ccccc3)oc2c1OC
[6]
  selectivity ratio: 5
[7]
  EC50: 21.6 µM

## C[C@@H]1O[C@@H](Oc2cc(O)c3c(=O)c(O)c(-c4ccc(O)c(O)c4)oc3c2)[C@H](O)[C@H](O)[C@H]1O
[1]
  EC50: 20100 nM

## C/C=C(\C)C(=O)O[C@@H]1CC([C@@H](O)C2=CC3OC(=O)C4=C3[C@H]2[C@H]2OC(=O)[C@H](C)[C@@H]2[C@H](OC(=O)/C(C)=C/C)C4)=C2C(=O)C=C(C)[C@@H]2[C@H]2OC(=O)[C@H](C)[C@@H]21 (stereo partly drawn)
[8]
  EC50: 30.3 µM
[7]
  EC50: 4.5 µM
[9]
  EC50: 10200 nM

## C/C=C(\C)C(=O)O[C@@H]1CC(C(=O)O)=C2C(=O)C=C(C)[C@@H]2[C@H]2OC(=O)[C@H](C)[C@@H]21
[7]
  EC50: 20.7 µM

## O=c1c(O)c(-c2cc(O)c(O)c(OS(=O)(=O)O)c2)oc2cc(O)cc(O)c12
[1]
  EC50: 21400 nM

## C=C1CC[C@H]2C(C)(C)CCC[C@]2(C)[C@H]1CC/C(C)=C/Cn1c[n+](C)c2ncnc(N)c21
[8]
  EC50: 9 µM
[1]
  EC50: 1800 nM
[10]
  EC50: 3000 nM

## C=C(C)C(=O)O[C@H]1CC2=C[C@@H](C/C(C)=C/[C@H]3OC(=O)C(=C)[C@H]13)OC2=O
[7]
  EC50: 0.07 µM
[11]
  EC50: < 280 nM

## CC/C=C(C)\C=C\CCC[C@]1(OC)C[C@H](C)[C@H](CC(=O)OC)OO1
[6]
  selectivity ratio: > 350
[7]
  EC50: 0.032 µM

## Cc1cc(O[C@@H]2O[C@@H](C)[C@H](O)[C@@H](O)[C@H]2O)c2c(c1)cc(O[C@@H]1O[C@@H](C)[C@H](O)[C@@H](O)C1O)c1c(=O)c3c(O)cccc3oc12 (stereo partly drawn)
[1]
  EC50: 15500 nM

## CC1=C\C=C\C[C@H](C)NC(=O)/C=C/C=C/C=C/[C@H](C)[C@@H](O)[C@H](O)[C@H](O)C[C@@H](O)\C=C\C=C\C(C)=C\1
[12]
  EC50: 6.1 µM
[13]
  selectivity ratio: 11

## CO[C@@]1(CCCC2(O)C=C(C)C(C)O2)C[C@H](C)[C@H](CC(=O)O)OO1 (stereo partly drawn)
[1]
  EC50: 49 nM
[7]
  EC50: 0.17 µM

## CC1=C\C=C\C[C@H](C)NC(=O)/C=C/C=C/C=C/[C@H](C)[C@@H](O)[C@H](O)[C@H](O)C[C@@H](O)/C=C\C=C\C(C)=C\1
[12]
  EC50: 0.8 µM
[13]
  selectivity ratio: 83

## CO/N=c1\[n-]cnc2c1n(C/C=C(\C)CCC=C(C)C)c[n+]2C
[8]
  EC50: < 0.25 µM
[1]
  EC50: 500 nM
[10]
  EC50: 2000 nM

## CC/C=C(C)/C=C/CCC[C@]1(OC)C[C@H](C)[C@H](CC(=O)O)OO1
[6]
  selectivity ratio: 3.8
[7]
  EC50: 5.7 µM

## CC[C@H](C)[C@@H]1NC(=O)CNC(=O)[C@H](CCCNC(=N)N)NC(=O)[C@H](Cc2ccc(O)cc2)NC(=O)[C@@H]2CSSC[C@H](NC1=O)C(=O)N[C@@H](Cc1ccc(O)cc1)C(=O)N[C@@H](CCCNC(=N)N)C(=O)N[C@@H](CCCNC(=N)N)C(=O)N[C@H](C(=O)N[C@@H](CCCNC(=N)N)C(N)=O)CSSC[C@H](NC(=O)[C@H](Cc1c[nH]c3ccccc13)NC(=O)C(N)CCCCN)C(=O)N[C@@H](Cc1ccccc1)C(=O)N[C@@H](CCCNC(=N)N)C(=O)N[C@@H](C(C)C)C(=O)N2 (stereo partly drawn) (H-[ξK]WCFRVCYRGICYRRCR-NH2; disulfide 3-16, 7-12)
[14]
  EC50: 47.9 µM
[15]
  EC50: 9.3 µM

## O=c1cc(-c2ccccc2)oc2c(O)c(O)ccc12 [7,8-DIHYDROXYFLAVONE]
[6]
  selectivity ratio: 116
[7]
  EC50: 0.27 µM

## C[C@@H]1[C@H](O)[C@@H](C)/C=C/C=C/C=C/C=C/C=C/C=C/C=C/[C@H](O[C@@H]2O[C@H](C)[C@@H](O)[C@H](N)[C@@H]2O)C[C@@H]2O[C@](O)(C[C@@H](O)C[C@@H](O)[C@H](O)CC[C@@H](O)C[C@@H](O)CC(=O)O[C@H]1C)C[C@H](O)[C@H]2C(=O)O [AMPHOTERICIN B]
[16]
  EC50: 2 µM
[17]
  EC50: 40 nM

## COc1ccc(-c2oc3cc(OC)c(OC)c(O)c3c(=O)c2OC)cc1OC [ARTEMETIN]
[6]
  selectivity ratio: 9.8
[7]
  EC50: 12.1 µM

## O=C(Cn1ccnc1[N+](=O)[O-])NCc1ccccc1 [BENZNIDAZOLE]
[14]
  EC50: 9.3 µM

## COc1cccc2oc3c(Cl)c(O)c([C@H]4CCC[C@@H](C)O4)c(O)c3c(=O)c12 [CHAETOXANTHONE C]
[8]
  EC50: 3.8 µM
[7]
  EC50: 109 µM
[5]
  EC50: 7900 nM

## CCCCCCC1CCCC(C2CCC([C@H]3CC[C@H]([C@H](O)CCCCCCCCCCCCC4=C[C@H](C)OC4=O)O3)O2)O1 (stereo partly drawn) [CHAMUVARININ]
[1]
  EC50: 1300 nM

## C[n+]1c2ccccc2cc2[n-]c3ccccc3c21 [CRYPTOLEPINE]
[2]
  selectivity ratio: 0.7
[3]
  EC50: 300 nM
[4]
  selectivity ratio: 29.3
[5]
  EC50: 1600 nM

## O=c1c(O)c(-c2ccccc2)oc2ccccc12 [FLAVONOL]
[8]
  EC50: 33 µM
[6]
  selectivity ratio: 29
[7]
  EC50: 2.2 µM
[18]
  selectivity ratio: 21
[9]
  EC50: 3000 nM
[19]
  selectivity ratio: 2

## C=C1C(=O)O[C@H]2C[C@@](C)(O)C3=CC[C@](C)(O)[C@@H]3C[C@H]12 [GUAIANOLIDE]
[8]
  EC50: 67 µM
[14]
  EC50: 18.1 µM
[15]
  EC50: 5.7 µM

## COc1cc(-c2oc3cc(O)cc(O)c3c(=O)c2O)ccc1O [ISORHAMNETIN]
[6]
  selectivity ratio: 4.6
[18]
  selectivity ratio: 10.7

## O=c1cc(-c2ccc(O)c(O)c2)oc2cc(O)cc(O)c12 [LUTEOLIN]
[20]
  Activity: 80%
[6]
  selectivity ratio: 3
[7]
  EC50: 14.1 µM
[18]
  selectivity ratio: 12
[9]
  EC50: 2800 nM

## CC/C=C(C)/C=C/CCC[C@]1(OC)C[C@H](C)[C@H](CC(=O)OC)OO1 [MANADOPEROXIDE B]
[7]
  EC50: 0.0088 µM

## CCCCCCCCCCCCCCCCOP(=O)([O-])OCC[N+](C)(C)C [MILTEFOSINE]
[14]
  EC50: 0.92 µM
[16]
  EC50: 4.67 µM

## CC1CS(=O)(=O)CCN1/N=C/c1ccc([N+](=O)[O-])o1 (stereo not drawn) [NIFURTIMOX]
[14]
  EC50: 1.5 µM
[9]
  EC50: 4 nM
[5]
  EC50: 24 nM

## NC[C@@H]1O[C@H](O[C@H]2[C@@H](O)[C@H](O[C@@H]3[C@@H](O)[C@H](N)C[C@H](N)[C@H]3O[C@H]3O[C@H](CO)[C@@H](O)[C@H](O)[C@H]3N)O[C@@H]2CO)[C@H](N)[C@@H](O)[C@@H]1O [PAROMOMYCIN]
[7]
  EC50: 22.7 µM
[9]
  EC50: 7 nM
[5]
  EC50: 5 nM

## N=C(N)c1ccc(OCCCCCOc2ccc(C(=N)N)cc2)cc1 [PENTAMIDINE]
[16]
  EC50: 15.8 µM

## Nc1nc([C@H]2[C@H](CNC(=O)c3cc(Br)c[nH]3)[C@@H](CNC(=O)c3cc(Br)c[nH]3)[C@@H]2c2c[nH]c(N)n2)c[nH]1 [SCEPTRIN]
[8]
  EC50: 96 µM
[7]
  EC50: 15.7 µM
[9]
  EC50: 83000 nM
[21]
  selectivity ratio: > 10

## COc1cc2c(c3oc4cccc(O)c4c(=O)c13)[C@@H]1C=CO[C@@H]1O2 [STERIGMATOCYSTIN]
[22]
  selectivity ratio: 0.46
[23]
  EC50: 130 nM

## CC(C)[C@@H]1NC(=O)[C@H](C)OC(=O)[C@@H](C(C)C)NC(=O)[C@@H](C(C)C)OC(=O)[C@H](C(C)C)NC(=O)[C@H](C)OC(=O)[C@@H](C(C)C)NC(=O)[C@@H](C(C)C)OC(=O)[C@H](C(C)C)NC(=O)[C@H](C)OC(=O)[C@@H](C(C)C)NC(=O)[C@@H](C(C)C)OC1=O [VALINOMYCIN]
[1]
  EC50: 3.2 nM
[11]
  EC50: < 110 nM
